Where two headings read alike, the source gives them in different places.
Legend:
human A1 AR = molecular target: T1, human A1 AR (Homo sapiens, UniProt P30542); assay: Radioligand binding (125I-ABA competition) to human A1 AR in CHO K1 cell membranes; settings: read-out: Binding Affinity A1
T1 construct: expressed in transfected cells
T1 sequence (P30542 1-326): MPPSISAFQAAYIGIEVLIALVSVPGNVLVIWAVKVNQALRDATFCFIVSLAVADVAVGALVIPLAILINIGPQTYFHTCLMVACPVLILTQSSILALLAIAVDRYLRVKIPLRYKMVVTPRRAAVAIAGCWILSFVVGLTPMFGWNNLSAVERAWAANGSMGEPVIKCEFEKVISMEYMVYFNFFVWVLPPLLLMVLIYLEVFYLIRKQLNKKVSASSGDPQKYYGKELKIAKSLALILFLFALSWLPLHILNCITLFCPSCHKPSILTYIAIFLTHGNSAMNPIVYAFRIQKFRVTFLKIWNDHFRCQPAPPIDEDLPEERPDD
Procedure: (§1) Sf9 cells were cultured in Grace's medium supplemented with 10% fetal bovine serum, 2.5 μg/ml amphotericin B and 50 μg/ml gentamycin in an atmosphere of 50% N2/50% O2. Viral infection was performed at a density of 2.5×10^6 cells/mL with a multiplicity of infection of two for each virus used. Infected cells were harvested 3 days post-infection and washed twice in insect PBS (PBS pH 6.3). Cells were then resuspended in lysis buffer (20 mM HEPES pH 7.5, 150 mM NaCl, 3 mM MgCl2, 1 mM β-mercaptoethanol (BME), 5 μg/mL leupeptin, 5 μg/mL pepstatin A, 1 μg/mL aprotinin, and 0.1 mM PMSF) and snap frozen for storage at −80° C. Cells were thawed on ice, brought to 30 mL total volume in lysis buffer, and burst by N2 cavitation (600 psi for 20 minutes). A low-speed centrifugation was performed to remove any unlysed cells (1000×g for 10 minutes), followed by a high-speed centrifugation (17,000×g for 30 minutes). The pellet from the final centrifugation was homogenized in buffer containing 20 mM HEPES pH 8, 100 mM NaCl, 1% glycerol, 2 μg/mL leupeptin, 2 μg/mL pepstatin A, 2 μg/mL Aprotinin, 0.1 mM PMSF, and 10 μM GDP using a small glass homogenizer followed by passage through a 26 gauge needle. Membranes were aliquoted, snap frozen in liquid N2, and stored at −80° C. Membranes from cells stably expressing the human A1 AR (CHO K1 cells) or A3 AR (HEK 293 cells) were prepared as described (Robeva et al., 1996).
(§2) Radioligand binding to recombinant human A2A receptors in Sf9 cell membranes was performed using either the radio labeled agonist, ^125I-APE (Luthin et al., 1995) or the radio labeled antagonist, ^125I-ZM241385 (^1251-ZM). To detect the high affinity, GTPγS-sensitive state of A1 and A3 AR, we used the agonist, ^125I-ABA (Linden et al., 1985;Linden et al., 1993). Binding experiments were performed in triplicate with 5 μg (A2A) or 25 μg (A1 and A3) membrane protein in a total volume of 0.1 mL HE buffer (20 mM HEPES and 1 mM EDTA) with 1 U/mL adenosine deaminase and 5 mM MgCl2 with or without 50 μM GTPγS. Membranes were incubated with radioligands at room temperature for three hours (for agonists) or two hours (for antagonists) in Millipore Multiscreen® 96-well GF/C filter plates and assays were terminated by rapid filtration on a cell harvester (Brandel, Gaithersburg, Md.) followed by 4×150 μl washes over 30 seconds with ice cold 10 mM Tris-HCl, pH 7.4, 10 mM MgCl2. Nonspecific binding was measured in the presence of 50 μM NECA. Competition binding assays were performed as described (Robeva et al., 1996) using 0.5-1 nM ^125I-APE, ^125I-ZM241385, or ^125I-ABA. […] The Ki values for competing compound binding to a single site were derived from IC50 values with correction for radioligand and competing compound depletion as described previously (Linden, 1982).

human A3 AR = molecular target: T2, human A3 AR (Homo sapiens, UniProt P0DMS8); assay: Radioligand binding (125I-ABA competition) to human A3 AR in HEK 293 cell membranes; settings: read-out: Binding Affinity A3
T2 construct: expressed in transfected cells
T2 sequence (P0DMS8 1-318): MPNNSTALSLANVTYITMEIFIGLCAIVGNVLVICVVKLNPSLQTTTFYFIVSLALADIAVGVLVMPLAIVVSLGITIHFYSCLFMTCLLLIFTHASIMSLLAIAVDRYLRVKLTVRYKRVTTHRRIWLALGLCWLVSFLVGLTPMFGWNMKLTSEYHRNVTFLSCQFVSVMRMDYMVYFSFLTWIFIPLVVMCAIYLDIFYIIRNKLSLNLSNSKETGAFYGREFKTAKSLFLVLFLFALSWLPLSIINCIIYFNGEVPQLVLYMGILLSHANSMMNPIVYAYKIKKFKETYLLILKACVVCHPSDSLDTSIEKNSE
Procedure: as §1, §2

human neutrophils = assay: Human neutrophil oxidative activity, luminol-enhanced chemiluminescence (TNF-primed, fMLP-stimulated); type: cell-based; settings: peak chemiluminescence
Text: Chemiluminescence Methods: Luminol enhanced chemiluminescence, a measure of neutrophil oxidative activity, is dependent upon both superoxide production and mobilization of the granule enzyme myeloperoxidase. The light is emitted from unstable high-energy oxygen species such as hypochlorous acid and singlet oxygen generated by activated neutrophils.
Purified human neutrophils (2×10^6/ml) suspended in Hanks balanced salt solution containing 0.1% human serum albumin (HA), adenosine deaminase (1 U/mL) and rolipram (100 nM) were incubated (37° C.) in a water bath for 15 min with or without rhTNF(10 U/ml). Following incubation 100 µL aliquots of the PMN were transferred to wells (White walled clear bottom 96 well tissue culture plates Costar #3670; 2 wells/condition) containing […] and luminol (final concentration […]) with or without adenosine agonist (final agonist concentrations 0.01-1000 nM). The plate was incubated 5 min (37° C.) and then FMLP (501 in HA; final concentration […]) was added to all wells.
Peak chemiluminescence was determined with a Victor 1420 Multilabel Counter in the chemiluminescence mode using the Wallace Workstation software. Data are presented as peak chemiluminescence as percent of activity in the absence of an adenosine agonist. The EC50 was determined using PRISM software. All compounds were tested with PMNs from three separate donors.
Purified neutrophils (˜98% neutrophils and >95% viable by trypan blue exclusion) containing <1 platelet per 5 neutrophils and <50 pg/ml endotoxin (limulus amebocyte lysate assay) were obtained from normal heparinized (10 U/ml) venous blood by a one step Ficoll-hypaque separation procedure (A. Ferrante et al., J. Immunol. Meth., 36, 109 (1980)).
Luminol-enhanced chemiluminescence, a measure of neutrophil oxidative activity, is dependent upon both superoxide production and mobilization of the lysosomal granule enzyme myeloperoxidase. The light is emitted from unstable high-energy oxygen species generated by activated neutrophils. Purified neutrophils (5-10×10^5/ml) were incubated in Hanks balanced salt solution containing 0.1% human serum albumin (1 ml) with the tested A2A agonist with or without rolipram and with or without tumor necrosis factor-alpha (1 U/ml) for 30 minutes at 37° C. in a shaking water bath. Then luminol (1×10^−4 M) enhanced f-met-leu-phe (1 mcM) stimulated chemiluminescence was read with a Chronolog® Photometer (Crono-log Corp., Havertown, Pa.) at 37° C. for 2-4 minutes. Chemiluminescence is reported as relative peak light emitted (=height of the curve) compared to samples with tumor necrosis factor-alpha and without agonist or rolipram.

[1] = molecular target: T3, recombinant human A2A receptors (Homo sapiens, UniProt P29274); assay: Radioligand binding to recombinant human A2A receptors in Sf9 cell membranes; settings: recombinant human A2A receptor, 125I-APE or 125I-ZM241385, read-out: Binding Affinity A2A
T3 construct: expressed in transfected cells; host or cells: Sf9 insect cells, viral infection
T3 sequence (P29274 whole entry): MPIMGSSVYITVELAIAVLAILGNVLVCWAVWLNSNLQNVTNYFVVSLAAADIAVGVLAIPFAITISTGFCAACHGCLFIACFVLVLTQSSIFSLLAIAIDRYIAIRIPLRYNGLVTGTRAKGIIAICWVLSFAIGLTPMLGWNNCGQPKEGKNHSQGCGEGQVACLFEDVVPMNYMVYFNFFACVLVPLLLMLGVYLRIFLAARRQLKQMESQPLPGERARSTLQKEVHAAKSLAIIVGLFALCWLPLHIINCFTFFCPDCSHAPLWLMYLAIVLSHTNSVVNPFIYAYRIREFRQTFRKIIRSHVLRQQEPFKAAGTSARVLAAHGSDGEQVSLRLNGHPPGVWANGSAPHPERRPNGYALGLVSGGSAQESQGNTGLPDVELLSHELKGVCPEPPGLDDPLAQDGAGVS
Procedure: as §1, §2

[2] = human neutrophil experiment with Rolipram, read-out: Functional + Roli
[3] = human neutrophil experiment without Rolipram, read-out: Functional

Compound | Ki (human A1 AR) [nM] | Ki (human A3 AR) [nM] | EC50 (human neutrophils; [2]) [nM] | EC50 (human neutrophils; [3]) [nM] | Ki [1] [nM] | EC50 (human neutrophils; Homo sapiens, Neutrophil, human neutrophil experiment with Rolipram, read-out: Functional + Roli) [nM] | EC50 (human neutrophils; Homo sapiens, Neutrophil, human neutrophil experiment without Rolipram, read-out: Functional) [nM]
CCNC(=O)[C@H]1O[C@@H](n2cnc3c(N)nc(C#CC4(O)CC5CCC4C5)nc32)C(O)C1O (single isomer, unassigned) [Example 1, 5-[6-Amino-2-(2-hydroxy-bicyclo[2.2.1]hept-2-ylethynyl)-purin-9-yl]-3,4-dihydroxy-tetrahydro-furan-2-carboxylic acid ethylamide] | 31 | 10 | 0.22 | 3.1 | 0.2 | – | –
CCNC(=O)[C@H]1O[C@@H](n2cnc3c(N)nc(C#CC4(O)C5CC6CC(C5)CC4C6)nc32)C(O)C1O (stereo in doubt) [Example 3, 5-[6-Amino-2-(2-hydroxy-adamantan-2-ylethynyl)-purin-9-yl]-3,4-dihydroxy-tetrahydro-furan-2-carboxylic acid ethylamide] | 75 | 4 | – | – | 0.2 | 0.22 | 3.8
Nc1nc(C#CC2(O)C3CC4CC(C3)CC2C4)nc2c1ncn2[C@@H]1O[C@H](CO)C(O)C1O (stereo in doubt) [Example 6, 2-[6-Amino-2-(2-hydroxy-adamantan-2-ylethynyl)-purin-9-yl]-5-hydroxymethyl-tetrahydro-furan-3,4-diol] | 28.5 | 2.9 | 0.3 | 4.9 | 0.6 | – | –

Next, values leading:

Ki (human A1 AR) [nM] | Ki (human A3 AR) [nM] | EC50 (human neutrophils; [2]) [nM] | EC50 (human neutrophils; [3]) [nM] | Ki [1] [nM] | EC50 (human neutrophils; Homo sapiens, Neutrophil, human neutrophil experiment with Rolipram, read-out: Functional + Roli) [nM] | EC50 (human neutrophils; Homo sapiens, Neutrophil, human neutrophil experiment without Rolipram, read-out: Functional) [nM] | Compound
11 | 3 | 0.058 | 0.5 | 0.3 | – | – | CCNC(=O)[C@H]1O[C@@H](n2cnc3c(N)nc(C#CC4(O)CC5CCC4C5)nc32)C(O)C1O (single isomer, unassigned) [Example 2, 5-[6-Amino-2-(2-hydroxy-bicyclo[2.2.1]hept-2-ylethynyl)-purin-9-yl]-3,4-dihydroxy-tetrahydro-furan-2-carboxylic acid ethylamide]
7.3 | 28.3 | 3.7 | 25 | 6.4 | – | – | CCNC(=O)[C@H]1O[C@@H](n2cnc3c(N)nc(C#CC4(O)CCCC5CCCCC54)nc32)C(O)C1O (stereo in doubt) [Example 4, 5-[6-Amino-2-(1-hydroxy-decahydro-naphthalen-1-ylethynyl)-purin-9-yl]-3,4-dihydroxy-tetrahydro-furan-2-carboxylic acid ethylamide]
2.6 | 4.9 | 0.28 | 2.5 | 0.7 | – | – | CCNC(=O)[C@H]1O[C@@H](n2cnc3c(N)nc(C#CC4(O)CCCC5CCCCC54)nc32)C(O)C1O (stereo in doubt) [Example 5, 5-[6-Amino-2-(1-hydroxy-decahydro-naphthalen-1-ylethynyl)-purin-9-yl]-3,4-dihydroxy-tetrahydro-furan-2-carboxylic acid ethylamide]

— US7442687B2, “2-polycyclic propynyl adenosine analogs having A2A agonist activity” (The University of Virginia Patent Foundation, priority 2004, dated 2008)
